{"source": "patent US20110097310A1", "about": "“ANTI-AGING OR ANTIOXIDANT COMPOSITION CONTAINING PLANT STEM CELL LINE DERIVED FROM CAMBIUM OF PANAX GINSENG” (UNHWA CORPORATION, priority 2008, published 2011)", "test_system": "MMP-1", "assay": "Inhibition of MMP-1 expression caused by UVB radiation in NHF cells", "format": "cell-based, human", "conditions": "NHF(p6), 40 mJ UVB, 48 hours, 10 uM positive control; Control UV = 230", "protocol": "When MMPs are increased due to exposure to UV radiation, the increased MMPs will degrade skin collagen to form skin wrinkles. Thus, in order to examine whether MMP-1 expression that increased due to UV radiation is inhibited by the extract or culture medium of the wild ginseng cambium-derived homogeneous cell line, the following test was carried out.\nNHF(p6) cells were dispensed in a 12-well plate at a density of 75,000 cells/well and starved for 24 hours. Then, the cells were radiated with 40 mJ of UVB and treated with varying concentrations of each of the samples for 48 hours. Then, an experiment was carried out using a kit (Amersham, RPN 2610). As a positive control, 10 μM retinoic acid was used.", "data": [{"compound": "CC1=C(/C=C/C(C)=C/C=C/C(C)=C/C(=O)O)C(C)(C)CCC1", "note": "[Retinoic acid, retinoic acid]", "values": [{"measurement": "MMP-1 expression, % of control (No UV = 100)", "result": "85 % of control"}]}]}
